# Counter-ions that a name gives are not always drawn.
# Key:
# [1] = rats; cited from earlier work
# [2] = rats; cited from earlier work; remark: listed apart in the source
# rat uterine tissue = details: cited from earlier work
# [3] = in vivo, cited from earlier work
# human uterine tissue = details: cited from earlier work
# human breast tumor cells = details: cited from earlier work
# DU145 cells = experiment: growth inhibition assay (MTT), androgen-independent human prostate cancer cells; format: cell-based; details: concentrations of 5 μM or higher, 7 days of treatment, 575 nm
# Experimental: (§1) [drawing 32] was synthesized as described in Example 4 without methylation at the 7-position of the steroid nucleus. The compound was evaluated for its inhibitory effect on androgen-independent human prostate cancer cells, DU145 cells and PC-3 cells, in a standard in vitro androgen-independent human prostate cancer assay.
# (§2) DU145 and PC-3 human prostate cancer cell lines were obtained from the American Type Culture Collection, Rockville, Md. Eagle's minimum essential medium, RPMI-1640 medium, fetal calf serum, nonessential amino acids, and sodium pyruvate were purchased from Sigma, St. Louis, Mo.
# (§3) PC-3 cells were maintained in RPMI-1640 medium supplemented with 10% fetal calf serum (FCS) and DU145 cells in Eagle's minimum essential medium (MEM) supplemented with 10% FCS. 1% nonessential amino acids, and 1 mM pyruvate. All cells were cultured at 37° C. in a 5% CO2/ 95% air atmosphere in 100% humidity. […] After 7 days of treatment, viable cells in each well were measured using the MTT assay as described in “Cellular Proliferation Assay,” in Protocols and Applications, 3rd Edition (Promega Corporation). […]
# (§4) The plate was kept at room temperature overnight and the blue color measured at 575 nm on an ELISA plate reader. Based on the optical density of samples treated with the test compound and that of the control, the inhibitory effect of SR 16312 was evaluated.
# PC-3 cells = experiment: as above; format: cell-based; details: concentrations of 5 μM or higher, 7 days of treatment, 575 nm
# Experimental: as §1, §2, §3, §4
SMILES,high-density lipoprotein (HDL) cholesterol levels [1],low-density lipoprotein (LDL) cholesterol levels [1],agonist-estrogenic activity in the skeletal system [2],anti-uterotrophic antagonist activity (rat uterine tissue),oral bioavailability ([3]; po),absorption [3],half-life [3],anti-uterotrophic antagonist activity (human uterine tissue),antagonist-antiestrogenic activity (human breast tumor cells),inhibition (DU145 cells) [%],inhibition (PC-3 cells) [%]
"CCN(CC)Cc1ccc(OCC[C@H]2CCC3C4C(CCC32C)c2ccc(O)cc2C[C@H]4C)c(OC)c1 (stereo partly drawn) [SR 16234, 3-hydroxy-7α-methyl-21-[2′-methoxy-4′-(diethylaminomethyl)-phenoxy]-19-norpregna-1,3,5(10)triene citrate]",increased,lowered,maintenance of bone and prevention of bone loss,complete,good,good,good,complete,complete,–,–
CCN(CC)Cc1ccc(OCC[C@H]2CCC3C4CCC5=CC(=O)CCC5C4CCC32C)c(OC)c1 (some centres unmarked) [SR 16312],–,–,–,–,–,–,–,–,–,~100,~100
